Laboratory results: publication PMC5940854, “Nitrothiophene carboxamides, a novel narrow spectrum antibacterial series: Mechanism of action and Efficacy” (Scientific Reports, 2018)
In brackets after ≈: the same amount, converted by molar mass. Where two headings read alike, the source gives them in different places.

Experiments:
E. coli ∆nfsA = experiment: microbe, parasite or virus in culture; assay type: cell-based; settings: Escherichia coli, read-out: MIC ∆nfsA
Procedure: (§1) To assess the biological relevance of the interacting protein and establish the link between nitroreductases to the antibacterial activity of NTC compounds, single (ΔnfsA or ΔnfsB) and double knockouts (ΔnfsA & ΔnfsB) of nitroreductases were generated by phage transduction using strains from the Keio collection.
(§2) The inoculum used for all the experiments is derived from a single seed lot that is maintained as glycerol stocks at −80 °C and are sub cultured on LB plate for isolated colonies. Single colony of each strain is grown in M9 medium. All test compound stocks and dilutions are prepared in DMSO. Serial two-fold dilutions of compounds are prepared separately, with the concentrations ranging from 2 mg/mL to 0.015 mg/mL. To 150 µl (3–7 × 10^5 CFU/ml) of bacterial culture in 96 well microtitre plates, 3 μL compound from each of the dilutions is added to respective wells to obtain final concentrations ranging from 40 µg/mL to 0.3 µg/mL of the test compounds. Media control, culture control and appropriate reference drug controls are included. […] Growth is monitored by checking absorbance at 600 nm (A600). […] The samples from MIC and above concentrations are plated for MBC (Minimum Bactericidal Concentration). The samples are diluted 1:10 and plated on LB agar plates. […] The killing kinetics is determined by enumerating survivors at various time points following compound exposure. E. coli cells (~10^7 CFU/ml; A600 of 0.1) are treated with various concentrations (40 µg/mL to 0.3 µg/mL) of compounds in a 96-well microtitre plate. At various time intervals (0 to 8 h), 30 μl volumes of treated cultures are serially diluted and plated on LB agar plates. […] Data is expressed as the log10 CFU for each drug treatment.

E. coli ∆nfsA + ∆nfsB = experiment: microbe, parasite or virus in culture; assay type: cell-based
Procedure: as §1, §2

[1] = test system: wild-type E. coli CGSC#7636 (BW25113); experiment: MIC, wild-type E. coli; assay type: cell-based; settings: for MIC WT: E. coli WT BW25113; for MIC: Escherichia coli
Procedure: as §2

NfsA = target: T1, NfsA (Escherichia coli, UniProt P17117); experiment: Nitroreductase activity assay, NfsA; assay type: biochemical, E. coli
T1 construct: His-tag; made in house; host or cells: E. coli BL21(DE3), pET28a (pET-nfsA)
T1 sequence (P17117 whole entry): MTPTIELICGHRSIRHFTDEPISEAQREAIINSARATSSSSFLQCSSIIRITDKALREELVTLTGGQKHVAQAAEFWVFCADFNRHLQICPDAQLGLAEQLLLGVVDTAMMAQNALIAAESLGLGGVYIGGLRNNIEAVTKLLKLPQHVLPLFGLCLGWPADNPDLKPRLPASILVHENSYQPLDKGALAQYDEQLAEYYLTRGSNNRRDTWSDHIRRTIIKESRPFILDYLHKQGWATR
Procedure: (§3) Enzyme reducing each of the substrates are measured by monitoring the concomitant oxidation of NADPH by NfsA and NADH by NfsB in a fluorescence based assay. The reduction in fluorescence due to the NADH oxidation (excitation 350 nm, emission 460 nm) and NADPH oxidation (excitation 340 nm, emission 485 nm) is recorded using a TECAN Infinite M200Pro spectrophotometer, in half area solid black microtiter plates. This change in fluorescence directly corelates to the reduction of the nitro-compounds in the reaction. The NfsA assays is performed by initiating the reactions with 40 μM NADPH and 10 nM NfsA in 50 mM Tris-HCl (pH 7.4), 5 mM EDTA against 20 μM substrate (5 μl of compounds/substrate dissolved in 100% DMSO) in a total reaction volume of 100 μl at 25 °C. Similarly, the NfsB assay is also performed by initiating the reactions with 40 μM NADH and 70 nM NfsB in 50 mM Tris-HCl (pH 7.4), 5 mM EDTA against 20 μM substrate in a total reaction volume of 100 μl. […] All reactions are performed in replicates of two or more and the fluorescence measurements are made at 10 second intervals for 5–10 minutes.
(§4) Low solubility of the compounds/substrates under the NfsA and NfsB assay conditions precluded determination of their Km. […] The relative fluorescence units (RFU) obtained due to NADPH (excitation 340 nm, emission 485 nm) or NADH (excitation 350 nm, emission 460 nm) oxidation of the first 90 sec reaction is used to compute the slopes using linear regression analysis on GraphPad Prism. Appropriate blank reactions are included to account for background fluorescence/quenching from each of the components such as DMSO, the compound itself and auto-oxidation of NADPH or NADH. Activity of NfsB with a known substrate such as nitrofurantoin is used as a benchmark to plot the relative activities with all the test compounds.

E. coli ∆nfsB = experiment: microbe, parasite or virus in culture; assay type: cell-based; settings: Escherichia coli, read-out: MIC ∆nfsB
Procedure: as §1, §2
The wild-type E. coli strain BW25113 and the entire Keio collection of knockouts[22] is maintained as glycerol stocks at −80 °C in 96-well deep well blocks. […] These are sub cultured in 150 µl of LB broth (Kanamycin 50 ug/ml, except for the wild-type strain) in 96 well microtiter plates and then adapted into M9 medium with 0.4% glucose. […] Cultures of single gene knockouts that show an altered MIC as compared to that of the wild type are scored as ‘Hits’.

NfsB = target: T2, NfsB (Escherichia coli, UniProt P38489); experiment: Nitroreductase activity assay, NfsB; assay type: biochemical, E. coli
T2 construct: His-tag; made in house; host or cells: E. coli BL21(DE3), pET28a (pET-nfsB)
T2 sequence (P38489 whole entry): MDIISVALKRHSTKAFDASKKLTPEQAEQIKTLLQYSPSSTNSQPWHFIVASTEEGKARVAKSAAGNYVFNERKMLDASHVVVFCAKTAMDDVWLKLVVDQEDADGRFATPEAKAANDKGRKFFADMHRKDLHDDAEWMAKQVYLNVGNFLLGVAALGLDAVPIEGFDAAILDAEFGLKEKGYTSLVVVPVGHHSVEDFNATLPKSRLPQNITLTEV
Procedure: as §3, §4

E. coli ∆acrB JW0451-2 = experiment: MIC, E. coli ∆acrB; assay type: cell-based; settings: for MIC: Escherichia coli, read-out: MIC acrB; for MIC acrB: E. coli ∆acrB
Procedure: as §2

E. coli ∆tolC JW5503-1 = experiment: MIC, E. coli ∆tolC; assay type: cell-based; settings: for MIC: Escherichia coli, read-out: MIC tolC; for MIC tolC: E. coli ∆tolC
Procedure: as §2

[2] = BW25113, E. coli WT BW25113, read-out: MIC WT

Row | Molecule | MIC [1, 2] [µg/mL] | MIC (E. coli ∆acrB JW0451-2) [µg/mL] | MIC (E. coli ∆tolC JW5503-1) [µg/mL] | also measured
1 | N#Cc1ccc(-c2csc(NC(=O)c3ccc([N+](=O)[O-])s3)n2)cc1 [compound 14, N-(4-(4-cyanophenyl)thiazol-2-yl)-5-nitrothiophene-2-carboxamide] | > 40 | 20 (≈ 56.1 µM) | 20 (≈ 56.1 µM) | MIC (E. coli ∆nfsA): > 40 µg/mL; MIC (E. coli ∆nfsA + ∆nfsB; Escherichia coli, read-out: MIC ∆nfsA + ∆nfsB): > 40 µg/mL; antibacterial activity in double knockout (in words) (E. coli ∆nfsA + ∆nfsB; ΔnfsA and ΔnfsB double knockout strain): inactive; MIC WT [1]: >40 µg/mL; NfsA activity (rate of compound conversion) (NfsA; 20 μM compound, 40 μM NADPH, 10 nM NfsA, slope of initial velocity): 0.20 µM/min; conversion by NfsA (in words) (NfsA; biochemical assay): not converted; MIC (E. coli ∆nfsB): > 40 µg/mL; NfsB activity (rate of compound conversion) (NfsB; 20 μM compound, 40 μM NADH, 70 nM NfsB, slope of initial velocity): 1.31 µM/min; conversion by NfsB (in words) (NfsB; biochemical assay): not converted; fold loss in MIC against ∆tolC (E. coli ∆tolC JW5503-1; compared to compound 12): > 100 fold
2 | 5-Nitro-N-(4-(6-(trifluoromethyl)pyridin-3-yl)thiazol-2-yl)thiophene-2-carboxamide [compound 17] | – | – | – | MIC WT [1]: > 40 µg/mL; MIC acrB (E. coli ∆acrB JW0451-2): 10 µg/mL; MIC tolC (E. coli ∆tolC JW5503-1): 10 µg/mL
3 | Cc1cc(F)ccc1-c1csc(NC(=O)c2ccc([N+](=O)[O-])s2)n1 [compound 18, N-(4-(4-fluoro-2-methylphenyl)thiazol-2-yl)-5-nitrothiophene-2-carboxamide] | 2.5 (≈ 6.88 µM) | 0.6 (≈ 1.65 µM) | 0.3 (≈ 0.826 µM) | –
4 | COc1cc(-c2csc(NC(=O)c3ccc([N+](=O)[O-])s3)n2)ccc1F [compound 19, N-(4-(4-fluoro-3-methoxyphenyl)thiazol-2-yl)-5-nitrothiophene-2-carboxamide] | 1.25 (≈ 3.29 µM) | 0.3 (≈ 0.791 µM) | 0.6 (≈ 1.58 µM) | –
5 | Cc1sc(NC(=O)c2ccc([N+](=O)[O-])s2)nc1-c1ccc(F)cc1 [compound 9, N-(4-(4-Fluorophenyl)-5-methylthiazol-2-yl)-5-nitrothiophene-2-carboxamide] | > 40 | 0.6 (≈ 1.65 µM) | 0.6 (≈ 1.65 µM) | –
6 | CN(C)Cc1sc(NC(=O)c2ccc([N+](=O)[O-])s2)nc1-c1ccc(F)cc1 [compound 10, N-(5-((dimethylamino)methyl)-4-(4-fluorophenyl)thiazol-2-yl)-5-nitro thiophene-2-carboxamide] | > 40 | 2.5 (≈ 6.15 µM) | 2.5 (≈ 6.15 µM) | fold change of MIC in ∆tolC (E. coli ∆tolC JW5503-1; compared to 9): four fold
7 | O=C(Nc1nc(-c2ccc(F)c(F)c2)cs1)c1ccc([N+](=O)[O-])s1 [compound 11, N-(4-(3,4-Difluorophenyl)thiazol-2-yl)-5-nitrothiophene-2-carboxamide] | 0.6 (≈ 1.63 µM) | 0.3 (≈ 0.817 µM) | 0.15 (≈ 0.408 µM) | –
8 | COc1cc(-c2csc(NC(=O)c3ccc([N+](=O)[O-])s3)n2)ccc1C(F)(F)F [compound 23, N-(4-(3-methoxy-4-(trifluoromethyl)phenyl)thiazol-2-yl)-5-nitrothiophene-2-carboxamide] | 2.5 (≈ 5.82 µM) | 2.5 (≈ 5.82 µM) | 1.25 (≈ 2.91 µM) | –
9 | Cc1sc(NC(=O)c2ccc(C(F)(F)F)s2)nc1-c1ccccc1 [compound 8, N-(5-Methyl-4-phenylthiazol-2-yl)-5-(trifluoromethyl) thiophene-2-carboxamide] | > 40 | > 40 | > 40 | –
10 | O=C(Nc1nc(-c2ccc(Cl)c(F)c2)cs1)c1ccc([N+](=O)[O-])s1 [compound 21, N-(4-(4-Chloro-3-fluorophenyl)thiazol-2-yl)-5-nitrothiophene-2-carboxamide] | – | 1.25 (≈ 3.26 µM) | 2.5 (≈ 6.51 µM) | MIC ([1]; BW25113, read-out: MIC WT): 1.25 µg/mL (≈ 3.26 µM)
11 | N-(4-(3-Fluoro-4-methylphenyl)thiazol-2-yl)-5-nitrothiophene-2-carboxamide [compound 13] | – | – | – | MIC WT [1]: 1.25 µg/mL; MIC acrB (E. coli ∆acrB JW0451-2): 0.3 µg/mL; MIC tolC (E. coli ∆tolC JW5503-1): 0.3 µg/mL
12 | O=C(Nc1nc(-c2ccc(OC(F)(F)F)cc2)cs1)c1ccc([N+](=O)[O-])s1 [compound 16, 5-Nitro-N-(4-(4-(trifluoromethoxy)phenyl)thiazol-2-yl)thiophene-2-carboxamide] | 5 (≈ 12 µM) | 1.25 (≈ 3.01 µM) | 0.3 (≈ 0.722 µM) | –
13 | O=C(Nc1nc(-c2cc(F)cc(F)c2)cs1)c1ccc([N+](=O)[O-])s1 [compound 24, N-(4-(3,5-difluorophenyl)thiazol-2-yl)-5-nitrothiophene-2-carboxamide] | > 20 | 0.3 (≈ 0.817 µM) | 0.3 (≈ 0.817 µM) | –
14 | CCOc1cc(-c2csc(NC(=O)c3ccc([N+](=O)[O-])s3)n2)ccc1Cl [compound 22, N-(4-(4-chloro-3-ethoxyphenyl)thiazol-2-yl)-5-nitrothiophene-2-carboxamide] | – | 1.25 (≈ 3.05 µM) | 0.6 (≈ 1.46 µM) | MIC ([1]; BW25113, read-out: MIC WT): 1.25 µg/mL (≈ 3.05 µM)
